Reference: the supplement of paper PMC12317010
Where a name gives a salt, the structure may show the parent alone.

Assay: collision cross section in nitrogen (drift tube, single-field); higher = larger gas-phase ion size
[1] = ion type: [M+H], ion source: APCI, ion mode: Positive
[2] = ion type: [M+H], ion source: ESI, ion mode: Positive
[3] = ion type: [M+Na], ion source: ESI, ion mode: Positive
[4] = ion type: [M-H], ion source: ESI, ion mode: Negative
[5] = ion source: APCI, ion mode: Positive, ion type: [M]+ (permanent cation)
[6] = ion source: ESI, ion mode: Positive, ion type: [M]+ (permanent cation)
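Note: chemical standards at 10 µM analysed by drift tube IMS-QTOF MS in about 3.95 torr nitrogen, mean of duplicate injections differing ≤1%, mass error below 10 ppm.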

SMILES | collision cross section in nitrogen [1] [Å²] | collision cross section in nitrogen [2] [Å²] | collision cross section in nitrogen [3] [Å²] | collision cross section in nitrogen [4] [Å²] | also measured
Cc1cnc(NC(=O)C2=C(O)c3ccccc3S(=O)(=O)N2C)s1 [Meloxicam] | 179.2 | 178.5 | 184.2 | 177.7 | –
CC#Cc1cc(C)nc(Nc2ccccc2)n1 [Mepanipyrim] | 152.6 | 153.1 | – | 160.6 | collision cross section in nitrogen (ion type: [M+], ion source: APCI, ion mode: Positive): 147.3 Å²
Cc1ccccc1C(=O)Nc1cccc(OC(C)C)c1 [Mepronil] | 169.9 | 169.4 | 180.1 | 172.6 | –
N#Cc1ccc(CC(=NNC(=O)Nc2ccc(OC(F)(F)F)cc2)c2cccc(C(F)(F)F)c2)cc1 [Metaflumizone] | – | 212.4 | 220.1 | – | –
COCC(=O)N(c1c(C)cccc1C)[C@H](C)C(=O)OC [Metalaxyl-M] | 160.5 | 160 | 168.8 | – | –
COCC(=O)N(c1c(C)cccc1C)C(C)C(=O)OC (stereo unspecified) [Metalaxyl] | 160.5 | 160.8 | 169.4 | – | –
Cc1nnc(-c2ccccc2)c(=O)n1N [Metamitron] | 144.9 | 145.2 | – | – | –
Cc1cc(C)cc(OCC2CNC(=O)O2)c1 (stereo unspecified) [Metaxalone] | – | – | 152.3 | – | –
CC1(C)CCC(Cc2ccc(Cl)cc2)C1(O)Cn1cncn1 (stereo unspecified) [Metconazole] | 169.3 | 169.1 | 176.1 | – | –
CC1CN1P(=O)(N1CC1C)N1CC1C (stereo unspecified) [Metepa] | 142.5 | 143.2 | 159.9 | – | –
CN(C)C(=N)NC(=N)N [Metformin] | 125.1 | 125.7 | – | – | –
CNC(=O)N(C)c1nc2ccccc2s1 [Methabenzthiazuron] | 144.2 | 144.7 | – | – | –
CN(C)CCN(Cc1cccs1)c1ccccn1 [Methapyrilene fumarate] | – | 157.8 | 160.3 | – | –
CN(C)CCN(Cc1cccs1)c1ccccn1 [Methapyrilene hydrochloride] | 157.6 | 157.6 | 160.1 | – | –
Cc1oc(C)c(C(=O)Nc2ccccc2)c1C [Methfuroxam] | 152.5 | 153.3 | – | – | –
COc1nn(CSP(=S)(OC)OC)c(=O)s1 [Methidathion] | – | – | 163.4 | – | –
Cn1cc[nH]c1=S [Methimazole] | 116.9 | 118.1 | – | – | –
Cc1cccc(NC(=S)N(C)C)c1 [Methiuron] | 143.1 | 143.3 | – | 147.1 | –
COc1ccccc1OCC(O)COC(N)=O (stereo unspecified) [Methocarbamol] | – | – | 154.6 | – | –
COc1cccc(C(=O)NN(C(=O)c2cc(C)cc(C)c2)C(C)(C)C)c1C [Methoxyfenozide] | – | – | 201.9 | 194.2 | –
COC(=O)CCc1cc(C(C)(C)C)c(O)c(C(C)(C)C)c1 [Methyl 3,5-bis(tert-butyl)-4-hydroxyhydrocinnamate] | – | – | 176.2 | 178.7 | –

SMILES | collision cross section in nitrogen [1] [Å²] | collision cross section in nitrogen [2] [Å²] | collision cross section in nitrogen [3] [Å²] | collision cross section in nitrogen [4] [Å²] | also measured
COC(=O)c1sccc1S(N)(=O)=O [Methyl 3-sulfamoylthiophene-2-carboxylate] | – | – | 148.5 | 141.1 | –
COC(=O)C1(O)c2ccccc2-c2ccccc21 [Methyl 9-hydroxy-9H-fluorene-9-carboxylate] | – | – | – | 150.1 | –
CCCCCCC(O)CCCCCCCCCCC(=O)OC (stereo unspecified) [Methyl 12-hydroxyoctadecanoate] | – | – | 194.2 | – | –
COS(=O)(=O)c1ccccc1 [Methyl benzenesulphonate] | – | – | – | 135 | –
CCCCCCCCCCCC(=O)OC [Methyl dodecanoate] | – | – | – | 158.5 | –
COc1ccc([C@@H]2CC(=O)c3c(O)cc(O[C@@H]4O[C@H](CO[C@@H]5O[C@@H](C)[C@H](O)[C@@H](O)[C@H]5O)[C@@H](O)[C@H](O)[C@H]4O)cc3O2)cc1OC [Methyl hesperidin] | – | – | 232.5 | 245.2 | –
CCCCCCCCCCCCCCCC(=O)OC [Methyl hexadecanoate] | – | – | – | 173.6 | –
COC(=O)c1cccnc1 [Methyl nicotinate] | 126.6 | – | – | – | –
CCCCCCCC(=O)OC [Methyl octanoate] | – | – | – | 146.7 | –
COC(=O)Cc1ccccc1 [Methyl phenylacetate] | – | – | – | 131.4 | –
CN(C)c1ccc(/N=N/c2ccccc2C(=O)O)cc1 [Methyl red] | 163.1 | 163 | 179.2 | 175.2 | –
C[C@](N)(Cc1ccc(O)c(O)c1)C(=O)O [Methyldopa sesquihydrate] | – | 149.6 | – | – | –
CCC(=O)/C=C/C1C(C)=CCCC1(C)C (stereo unspecified) [Methylionone] | – | – | – | 155.8 | –
CCCCCCCC[N+](C)(CCCCCCCC)CCCCCCCC [Methyltrioctylammonium chloride] | – | – | – | – | collision cross section in nitrogen [5]: 222.2 Å²; collision cross section in nitrogen [6]: 221.8 Å²
CCc1cccc(C)c1N(C(=O)CS(=O)(=O)O)C(C)COC (stereo unspecified) [Metolachlor ESA] | – | – | 177.4 | 173.9 | –
CCc1cccc(C)c1N(C(=O)C(=O)O)C(C)COC (stereo unspecified) [Metolachlor OA] | – | – | – | 165.9 | –
CCc1cccc(C)c1N(C(=O)CCl)C(C)COC (stereo unspecified) [Metolachlor] | 158.9 | 159.8 | 172.6 | – | –
COCCc1ccc(OCC(O)CNC(C)C)cc1 (stereo unspecified) [Metoprolol] | 171.7 | 172.1 | 164 | – | –
CSc1nnc(C(C)(C)C)c(=O)[nH]1 [Metribuzin-DA] | 144.2 | 145.2 | 161.3 | 144.8 | –
CSc1nnc(C(C)(C)C)c(=O)n1N [Metribuzin] | 146.7 | 148.4 | – | 148.3 | –
Cc1ncc([N+](=O)[O-])n1CCO [Metronidazole] | 133.8 | 134.3 | – | – | –

SMILES | collision cross section in nitrogen [1] [Å²] | collision cross section in nitrogen [2] [Å²] | collision cross section in nitrogen [3] [Å²] | collision cross section in nitrogen [4] [Å²] | also measured
CC(C)(C(=O)c1cccnc1)c1cccnc1 [Metyrapone] | – | 156.2 | – | – | –
COc1ccc(OC)c(C(O)CNC(=O)CN)c1 (stereo unspecified) [Midodrine hydrochloride] | – | – | 164.3 | 159.5 | –
CC#C[C@]1(O)CC[C@H]2[C@@H]3CCC4=CC(=O)CCC4=C3[C@@H](c3ccc(N(C)C)cc3)C[C@@]21C [Mifepristone] | – | 221.9 | 246.2 | 221.9 | –
Cc1[nH]c(=O)c(C#N)cc1-c1ccncc1 [Milrinone] | 157.1 | 156.3 | – | 147.4 | –
CN(c1nccc(=O)[nH]1)C1CCN(c2nc3ccccc3n2Cc2ccc(F)cc2)CC1 [Mizolastine] | 204.1 | 203.7 | 209.6 | 204.5 | –
CCCCC(CC)COC(=O)c1ccccc1C(=O)O (stereo unspecified) [Mono(2-ethylhexyl) phthalate] | – | – | 182.1 | 169.2 | –
O=C(O)CCCOC(=O)c1ccccc1C(=O)O [Mono(3-carboxypropyl)phthalate] | – | – | 156.3 | – | –
O=C(O)c1ccccc1C(=O)OCc1ccccc1 [Monobenzyl phthalate] | – | – | 157.4 | 160.8 | –
CCCCOC(=O)c1ccccc1C(=O)O [Monobutyl phthalate] | – | – | – | 151.7 | –
C[C@H]1C(=O)O[C@@H]2CCN3CC=C(COC(=O)[C@](C)(O)[C@]1(C)O)[C@H]23 [Monocrotaline] | 175.4 | 175.3 | 178.6 | – | –
O=C(O)c1ccccc1C(=O)OC1CCCCC1 [Monocyclohexyl phthalate] | – | – | 171.7 | 159.9 | –
CCOC(=O)c1ccccc1C(=O)O [Monoethyl phthalate] | – | – | – | 142 | –
O=C(O)c1ccccc1C(=O)O [Monopotassium phthalate] | – | – | – | 127.6 | –
O=C(O)c1ccc(Cl)cc1C(=O)O [Monosodium hydrogen 4-chlorophthalate] | – | – | – | 132.5 | –
CCCCCCCCCCCCCOP(=O)(O)O [Monotridecyl phosphate] | – | – | – | 169.9 | –
CN(C)C(=O)Nc1ccc(Cl)cc1 [Monuron] | 142.7 | 143 | – | 142.4 | –
O=c1c(O)c(-c2ccc(O)cc2O)oc2cc(O)cc(O)c12 [Morin hydrate] | – | – | – | 164.1 | –
CCCCC(C#N)(Cn1cncn1)c1ccc(Cl)cc1 (stereo unspecified) [Myclobutanil] | – | 174.7 | – | – | –
CCCCCCCCCCCCCC[N+](C)(C)C [Myristyltrimethylammonium chloride] | – | – | – | – | collision cross section in nitrogen [5]: 185.2 Å²; collision cross section in nitrogen [6]: 185.7 Å²
O=C1C=CC(=O)N1c1cccc(N2C(=O)C=CC2=O)c1 [N,N'-1,3-Phenylenedimaleimide] | 157.9 | – | – | 155 | –
